Patent publication US6756526B2, “Drought tolerant plants and methods of increasing drought tolerance in plants” (Kansas State University Research Foundation, priority 2001, dated 2004)
Entries after “also recorded” stand apart in the source; their conditions may differ.

Columns and labels:
[1] = test system: PLDα-depleted (antisense) Arabidopsis leaves; assay: Stomatal closure measured as diffusion resistance (steady state porometer) in detached leaves incubated with ABA; format: in vivo, Arabidopsis thaliana; details: PLDα-suppressed leaves
Description: (§1) The depletion of PLDα in guard cells provides a means of assessing the role of PLD in stomatal movement. Stomatal closure was determined by measuring diffusion resistance using a steady-state porometer. Briefly, detached Arabidopsis leaves were floated with the abaxial side downward in a solution containing 5 mM MES-KOH (pH 6.1), 22 mM KCl, and 1 mM CaCl2 for 1 hour under the same light conditions used for growing plants. Leaves then were incubated without or with ABA at indicated concentrations. ABA was made as a 10 mM stock solution in 5% dimethyl sulfoxide (DMSO), and the same amount of DMSO (0.005%) was also added to the control solution in all treatments. Stomatal aperture of detached leaves was measured as diffusion resistance with a steady state porometer using the method of Thimann and S. O. Satler, Relation Between Leaf Senescence and Stomatal Closure: Senescence in Light, 76 Proc. Natl. Acad. Sci. USA, 2295-2298 (1979). For tobacco plants, leaf diffusion resistance was also measured in leaves attached to approximately 2-month-old plants following foliar spraying of ABA at indicated concentrations. Changes in diffusion resistance in response to ABA in both detached and intact leaves were monitored at indicated time intervals. Before drought treatment was imposed, Arabidopsis plants were grown in a greenhouse for 6-8 weeks and watered regularly. Soil water content in each pot was adjusted to approximately the same level before drought treatment. Plants were subjected to drought by withholding irrigation and the soil surface in each pot was covered with plastic wraps to minimize evaporation. Soil moisture in the 0-20 cm soil layer was monitored during drought using a time domain reflectometer. When ABA (10 μM) was sprayed on plants in some treatments, control groups of plants were sprayed with water in the same amount as for the ABA treatment. Leaves were collected at various times of drought treatment, and leaf water potential (ψw) was measured with a thermocouple psychrometer.
(§2) Detached Arabidopsis leaves were floated with the abaxial side downward in a solution containing 5 mM MES-KOH (pH 6.1), 22 mM KCl, and 1 mM CaCl2 for 1 hour under the same light conditions used for growing plants. Leaves then were incubated without or with ABA at indicated concentrations. ABA was made as a 10 mM stock solution in 5% dimethyl sulfoxide (DMSO), and the same amount of DMSO (0.005%) was also added to the control solution in all treatments. Stomatal aperture was measured as diffusion resistance with a steady state porometer (Li-COR 1600, Lincoln, Nebr.). The porometer was set for aperture of 0.5 cm^2, pressure of 100 pa, and relative humidity of 30%. Changes in diffusion resistance were monitored on plants at indicated time intervals.

[2] = test system: wild-type Arabidopsis leaves; assay: as above; format: in vivo, Arabidopsis thaliana
Description: as §1, §2

[3] = test system: control tobacco plants (empty vector); assay: Leaf diffusion resistance measured directly on plants after foliar ABA spray; format: in vivo, Nicotiana tabacum; details: 2.5 and 5 μM ABA sprayed, 20 minutes after application, relative to plants sprayed with water
Description: as §1, with “Before drought treatment was imposed, Arabidopsis plants were grown in a greenhouse for 6-8 weeks and watered regularly. Soil water content in each pot was adjusted to approximately the same level before drought treatment. Plants were subjected to drought by withholding irrigation and the soil surface in each pot was covered with plastic wraps to minimize evaporation.” left out, “When ABA (10 μM) was sprayed on plants in some treatments, control groups of plants were sprayed with water in the same amount as for the ABA treatment. Leaves were collected at various times of drought treatment, and leaf water potential (ψw) was measured with a thermocouple psychrometer.” left out

PLD = details: tissues or guard cells treated with ABA; cited from earlier work
[4] = test system: PLDα-deficient Arabidopsis plants; assay: Progressive drought by withholding irrigation, with ABA spray; format: in vivo, Arabidopsis thaliana; details: ABA 10 μM sprayed once a day, PLDα-deficient plants under drought
Description: as §1, with “Before drought treatment was imposed, Arabidopsis plants were grown in a greenhouse for 6-8 weeks and watered regularly. Soil water content in each pot was adjusted to approximately the same level before drought treatment. Plants were subjected to drought by withholding irrigation and the soil surface in each pot was covered with plastic wraps to minimize evaporation.” left out, “When ABA (10 μM) was sprayed on plants in some treatments, control groups of plants were sprayed with water in the same amount as for the ABA treatment. Leaves were collected at various times of drought treatment, and leaf water potential (ψw) was measured with a thermocouple psychrometer.” left out

[5] = test system: wild-type Arabidopsis plants; assay: as above; format: in vivo, Arabidopsis thaliana; details: ABA 10 μM sprayed once a day, wild-type plants under drought
Description: as §1, with “Before drought treatment was imposed, Arabidopsis plants were grown in a greenhouse for 6-8 weeks and watered regularly. Soil water content in each pot was adjusted to approximately the same level before drought treatment. Plants were subjected to drought by withholding irrigation and the soil surface in each pot was covered with plastic wraps to minimize evaporation.” left out, “When ABA (10 μM) was sprayed on plants in some treatments, control groups of plants were sprayed with water in the same amount as for the ABA treatment. Leaves were collected at various times of drought treatment, and leaf water potential (ψw) was measured with a thermocouple psychrometer.” left out

[6] = test system: protoplasts of barley aleurone and Vicia faba guard cells; details: cited from earlier work
guard cell protoplasts = details: PA applied to guard cell protoplasts; cited from earlier work

Row | Compound | effect on stomatal closure ([1]; 2 μM ABA) | ABA-induced increase in diffusion resistance, relative to that observed in wild-type leaves ([1]; 10 μM ABA) | ABA concentration at which diffusion resistance reached a plateau ([1]; 0.5-50 μM ABA tested, 20 minutes) [µM] | effect on stomatal closure ([2]; 2 μM ABA, wild-type leaves) | increase in diffusion resistance (stomatal closure) ([2]; 10 μM ABA, detached wild-type leaves) | persistence of the ABA effect on diffusion resistance ([2]; 10 μM ABA, wild-type) | increase in leaf diffusion resistance [3] | PLD activity (and gene expression) after ABA (PLD) | effect on water loss and drought resistance [4] | effect on drought resistance (leaf turgidity, leaf water potential, soil water content) [5] | effect of PA addition compared with ABA [6] | ionic efflux (guard cell protoplasts)
1 | CC1=CC(=O)CC(C)(C)[C@@]1(O)/C=C/C(C)=C\C(=O)O [ABA, abscisic acid] | no effect | approximately 50% | > 50 | stimulated stomatal closure | approximately twofold | more than 30 minutes | about 30% | increased; also recorded: increases PLD activity | no detectable effect | enhanced resistance to drought; also recorded: improves this drought resistance |  | 
2 | phosphatidic acid [PA] |  |  |  |  |  |  |  |  |  |  | partially mimicked the effect of ABA | increase in ionic efflux
